“And” between values parts separate entries of the source, which are not always exact repeats. Identical values can stand only once. Like-named read-outs stand apart in the source and are kept apart here.

Test [1] deals with T1, KRAS(G12C) (Homo sapiens, UniProt P01116, G12C). The experiment in a line: biochemical. Type of test: binding. The settings on record: 20 nM KRAS(G12C), 1 M urea, 120 min at room temperature; read-out: Chemical stability IC50. How it is done: (§1) Nucleotide exchange inhibition was monitored in an assay with 10 nM KRAS and 5 nM SOS^cat, utilizing Eu^3+-GTP TRL-signal protection upon KRAS binding according to QRET principle. […] (d) Overview of the assay results presented in (a–c) and Figs. S17, S19–S20.
(§2) In these assays, no external protein (SOS^cat) is used and only KRAS and inhibitors are present. First, we conducted a chemical stability assay by utilizing the FRET-Probe technique. In this system, time dependent KRAS (20 nM) denaturation is monitored in 1 M urea solution after KRAS preincubation with varying inhibitor concentration. […] In this assay, we observed an exceptionally high stability increase with both inhibitors (Fig. 5d; Fig. S17).
(§3) FRET-Probe chemical stability assays[69] were performed in triplicates in an assay buffer containing 10 mM HEPES (pH 7.5), 10 mM NaCl, and 0.01% (v/v) Brij-30 (with or without 0.2 mM MgCl2) and destabilizing detection buffer with 10 mM HEPES (pH 7.5), 1 M urea, and 0.01% (v/v) Brij-30. […] Thereafter, 16 μL of the 1 × FRET-Probe was added in destabilizing detection buffer and TR-FRET signal was monitored multiple times during 120 min incubation (parameters as in thermal stability assay). All concentrations are informed in a final 20 μL reaction volume in white 384-well low volume plates (Corning, USA). IC50 values were obtained by blotting the signals obtained with different inhibitor concentrations at the selected time point against the inhibitor concentration and using standard sigmoidal fitting functions from Origin 2016 software.

In test [2] the target is T2, KRAS(G12C/Y96D) (Homo sapiens, UniProt P01116, G12C/Y96D). The test is described as follows: biochemical. In kind it is binding. The settings on record: 20 nM KRAS(G12C/Y96D), 1 M urea, 120 min at room temperature; read-out: Chemical stability IC50. How it is done:
as §1, §2, §3

Test [3] deals with T3, KRAS(G12C/H95L) (Homo sapiens, UniProt P01116, G12C/H95L). The test is described as follows: biochemical. In kind it is binding. Conditions: 20 nM KRAS(G12C/H95L), 1 M urea, 120 min at room temperature; read-out: Chemical stability IC50. How it is done:
as §1, §2, §3

Test [4] concerns the target T1, KRAS(G12C). The test is described as follows: FRET-Probe thermal stability assay. Type of test: binding. How it is done:
as §2
(§4) FRET-Probe thermal stability assays[69] were conducted in triplicates in an assay buffer containing 10 mM HEPES (pH 7.5), 10 mM NaCl, 0.5 mM MgCl2, and 0.01% (v/v) Brij-30. Assay was also performed in an assay buffer without MgCl2. […] Thereafter, 8 μL of the 1 × FRET-Probe was added, and signals were monitored using step-by-step protocol by heating from 34–96 °C using 2 °C steps and heating the sample 1.5 min at each step prior measurement using 340 and 665 nm excitation and emission wavelengths and 50 and 200 μs delay and decay time, respectively. Thermal heating was performed with a PTC-100 Programmable Thermal Controller (MJ Research, Inc., Watertown, MA). All concentrations are informed in a final 20 μL reaction volume in white 96-well PCR-plate (BioRad, USA). Tm values were obtained using standard sigmoidal fitting functions from Origin 2016 software. […]
heating with the FRET-Probe. KRAS(G12C) was preincubated 15 min prior the thermal ramping, in […]
which the TR-FRET signals from the triplicate reactions were monitored for every 2 °C, up to 96 °C.
Normalized thermal curves with or without MgCl2 (0.2 mM) are shown in A and C, and the same data […]
is presented as TR-FRET signals in B and D, respectively.
(§5) (1 picture or pasted object on this page, not shown here)

Test [5] addresses T4, KRAS(WT) (Homo sapiens, UniProt P01116). The experiment in a line: FRET-Probe thermal stability assay. In kind it is binding. The arrangement: full-length KRAS(G12C), KRAS(G12C/H95L), KRAS(G12C/Y96D) and KRAS(WT); host or cells: E. coli. Here is the method:
as §4
TR-FRET signals from the triplicate reactions were monitored for every 2 °C, up to 96 °C. Normalized thermal curves with or without MgCl2 (0.2 mM) are shown in A and C, and the same data is presented as TR-FRET signals in B and D, respectively.
as §5

The next test addresses HRAS(G12C) (Homo sapiens, UniProt P01112, G12C). The experiment in a line: biochemical. Conditions: 10 nM HRAS(G12C), 5 nM SOScat, 15 min preincubation; read-out: Nucleotide exchange IC50. How it is done: as §1
(§6) SII-P inhibitor activities can differ among RAS isoforms (KRAS/HRAS/NRAS). These isoforms differ only in position 95 in the SII-P (Fig. S18).
(§7) Nucleotide exchange assays using the QRET principle[63]–[65],[68] were performed in assay buffer containing 20 mM HEPES (pH 7.5) 1 mM MgCl2, 10 mM NaCl, 0.01% (v/v) Triton X-100. […] Thereafter, 6 μL of detection solution (3.5 μM MT2 and 10 nM Eu^3+-GTP) was added and reaction was initiated with 5 nM SOS^cat added in 3 μL volume. TRL-signals were monitored using Tecan Spark 20 M from Tecan Life Sciences (Männedorf, Switzerland) by using 340 and 620 nm excitation and emission wavelengths and 800 and 400 μs delay and decay time, respectively. All concentrations are informed in a final 15 μL reaction volume in white 384-well low volume plates (Corning, USA). IC50 values were obtained using standard sigmoidal fitting functions from Origin 2016 software (Origin Lab, Northampton, MA).

Another test deals with NRAS(G12C) (Homo sapiens, UniProt P01111, G12C). The experiment in a line: biochemical. The settings on record: 10 nM NRAS(G12C), 5 nM SOScat, 15 min preincubation; read-out: Nucleotide exchange IC50. How it is done:
as §1, §6, §7

Test [6] has as its target T2, KRAS(G12C/Y96D). The test is described as follows: biochemical. The settings on record: 10 nM KRAS(G12C/Y96D), 5 nM SOScat, 15 min preincubation; read-out: Nucleotide exchange IC50.
Text: (§8) First, we performed a traditional nucleotide exchange assay using a single-label quenching resonance energy transfer (QRET) principle[63]–[65] and non-labeled full-length KRAS(G12C), (G12C/H95L), and (G12C/Y96D). The selection of the two double mutants was based on the observed interactions in the MD simulations (Figs. 2, 3), and the fact that acquired resistance with SII-P inhibitors is associated with these mutations, as clinically observed for sotorasib and adagrasib[66]–[68].
as §1, §7

The target in test [7] is T3, KRAS(G12C/H95L). The experiment in a line: biochemical. Conditions: 10 nM KRAS(G12C/H95L), 5 nM SOScat, 15 min preincubation; read-out: Nucleotide exchange IC50.
Text: as §8, §1, §7

The target of test [8] is T4, KRAS(WT). The test is described as follows: biochemical. Conditions: 10 nM KRAS(WT), 5 nM SOScat, 15 min preincubation; read-out: Nucleotide exchange IC50. Here is the method:
Our results imply that both inhibitors are highly dependent on their covalent interaction to G12C for efficient and potent RAS inhibition.
as §7
with 10 nM KRAS(WT) and 5 nM SOScat, utilizing Eu3+-GTP (10 nM) TRL-signal protection upon
KRAS binding according to QRET principle.
as §5

In test [9] the target is T1, KRAS(G12C). The test is described as follows: biochemical. The settings on record: 10 nM KRAS(G12C), 5 nM SOScat, 15 min preincubation; read-out: Nucleotide exchange IC50.

HRAS(G12C), sequence (P01112 1-169 G12C): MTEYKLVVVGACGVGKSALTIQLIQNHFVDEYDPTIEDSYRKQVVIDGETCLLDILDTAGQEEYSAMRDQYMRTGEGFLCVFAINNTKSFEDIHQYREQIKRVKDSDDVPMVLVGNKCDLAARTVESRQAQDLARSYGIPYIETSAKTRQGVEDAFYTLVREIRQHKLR
NRAS(G12C), sequence (P01111 1-169 G12C): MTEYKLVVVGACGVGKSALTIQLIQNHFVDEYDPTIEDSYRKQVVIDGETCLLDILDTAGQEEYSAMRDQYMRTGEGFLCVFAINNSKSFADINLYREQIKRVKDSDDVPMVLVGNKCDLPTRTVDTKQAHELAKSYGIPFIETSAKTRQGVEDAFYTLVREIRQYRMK

In the case of `C=CC(=O)N1CCN(c2nc(OC[C@@H]3CCCN3C)nc3c(F)c(-c4nc(N)cc(C)c4C(F)(F)F)c(Cl)cc23)[C@@H](C)C1` [GDC-6036, divarasib], the half-inhibitory concentration (IC50) turned out to be 5.9 ± 0.9 nM on KRAS(G12C) [1]; 106 ± 6 nM at KRAS(G12C/Y96D) [2]; 15 ± 3.4 nM on KRAS(G12C/H95L) [3]; 32.9 ± 2.2 nM on HRAS(G12C); 29.8 ± 2.35 nM on NRAS(G12C); 229 ± 59 nM on KRAS(G12C/Y96D) [6]. Besides, the IC50 on KRAS(G12C/H95L) [7] stood at 12 ± 3 nM; on KRAS(WT) [8], 291 ± 23 nM. In addition, the ΔTm at 0.05 µM came out at 23.7 °C at KRAS(G12C) [4] (20 nM KRAS(G12C), 50 nM inhibitor, first value (footnote c), one of the with / without Mg2+ conditions, read-out: Thermal stability ΔTm) and 32.5 °C at KRAS(G12C) [4] (20 nM KRAS(G12C), 50 nM inhibitor, second value (footnote d), the other of the with / without Mg2+ conditions, read-out: Thermal stability ΔTm). Also, the ΔTm at 10 µM on KRAS(WT) [5] (20 nM KRAS(WT), 10,000 nM inhibitor, first value (footnote f), one of the with / without Mg2+ conditions, read-out: Thermal stability ΔTm) stood at 5.2 °C; at KRAS(WT) [5] (20 nM KRAS(WT), 10,000 nM inhibitor, second value (footnote g), the other of the with / without Mg2+ conditions, read-out: Thermal stability ΔTm) it was 5.5 °C.
For `C=CC(=O)N1CCN2C(=O)c3cc(F)c(-c4ccc(F)c5sc(N)c(C#N)c45)c(Cl)c3OCC[C@H]2C1` [LY3537982, olomorasib], the IC50 at KRAS(G12C) [9] is 0.956 ± 0.3 nM; on KRAS(G12C) [1], 0.368 nM and 0.37 nM; at KRAS(G12C/Y96D) [2], 1.6 ± 0.1 nM; on KRAS(G12C/H95L) [3] it was 0.345 nM and 0.35 nM; at HRAS(G12C) it was 0.48 ± 0.042 nM; on NRAS(G12C), 0.16 ± 0.013 nM. For the same molecule, the IC50 on KRAS(G12C/Y96D) [6] was 2.8 ± 0.8 nM; at KRAS(G12C/H95L) [7], 0.121 nM and 0.12 nM; on KRAS(WT) [8] it was 343 ± 23 nM. In addition, the ΔTm at 0.05 µM at KRAS(G12C) [4] (read-out: Thermal stability ΔTm, 20 nM KRAS(G12C), 50 nM inhibitor, first value (footnote c), one of the with / without Mg2+ conditions) turned out to be 20.5 °C; at KRAS(G12C) [4] (read-out: Thermal stability ΔTm, 20 nM KRAS(G12C), 50 nM inhibitor, second value (footnote d), the other of the with / without Mg2+ conditions), 30.4 °C. For the same molecule, the thermal shift (ΔTm) at 10 µM at KRAS(WT) [5] (read-out: Thermal stability ΔTm, 20 nM KRAS(WT), 10,000 nM inhibitor, first value (footnote f), one of the with / without Mg2+ conditions) stood at 5.1 °C; at KRAS(WT) [5] (read-out: Thermal stability ΔTm, 20 nM KRAS(WT), 10,000 nM inhibitor, second value (footnote g), the other of the with / without Mg2+ conditions), 4.9 °C.

The record behind these values is PMC12246139 (Scientific Reports, 2025).
